Reference: PubChem BioAssay (NCI)
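Exposure lasted 48 hours, with cells grown in 96-well plates and compounds tested at five concentrations. The concentration for 50% growth inhibition is given as GI50. The concentration for full growth arrest is given as TGI.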

Tests used:
Test in all cases: NCI tumour cell line growth inhibition, 48 h
IGROV1 ovarian = system: IGROV1 ovarian
HL-60(TB) leukemia = system: HL-60(TB) leukemia
T-47D breast = system: T-47D breast
MALME-3M melanoma = system: MALME-3M melanoma
KM12 colon = system: KM12 colon
UACC-62 melanoma = system: UACC-62 melanoma
K-562 leukemia = system: K-562 leukemia
HOP-92 NSCLC = system: HOP-92 NSCLC
HS 578T breast = system: HS 578T breast
RXF 393 renal = system: RXF 393 renal
RPMI-8226 leukemia = system: RPMI-8226 leukemia
SF-268 CNS = system: SF-268 CNS
NCI/ADR-RES ovarian = system: NCI/ADR-RES ovarian
OVCAR-3 ovarian = system: OVCAR-3 ovarian
OVCAR-4 ovarian = system: OVCAR-4 ovarian
BT-549 breast = system: BT-549 breast
HCT-116 colon = system: HCT-116 colon
786-0 renal = system: 786-0 renal
SR leukemia = system: SR leukemia
COLO 205 colon = system: COLO 205 colon
SF-295 CNS = system: SF-295 CNS
SK-MEL-28 melanoma = system: SK-MEL-28 melanoma
UO-31 renal = system: UO-31 renal
SK-OV-3 ovarian = system: SK-OV-3 ovarian
CAKI-1 renal = system: CAKI-1 renal
HT29 colon = system: HT29 colon
TK-10 renal = system: TK-10 renal
SF-539 CNS = system: SF-539 CNS
MDA-MB-435 = system: MDA-MB-435

Q: Which GI50 (IGROV1 ovarian) does the source give for `COc1ccc(CCOc2cc3c(cc2OC)CCN(C(=O)NCc2cocn2)C3c2ccc(C)cc2C)cc1` (configuration not stated) here?
A: 0.905 µM

Q: What about the TGI (IGROV1 ovarian) of the same compound?
A: > 100 µM

Q: And the GI50 (HL-60(TB) leukemia)?
A: 0.273 µM

Q: And the TGI (HL-60(TB) leukemia)?
A: 0.833 µM

Q: And the GI50 (T-47D breast)?
A: 1.06 µM

Q: And the TGI (T-47D breast)?
A: 9.02 µM

Q: And the GI50 (MALME-3M melanoma)?
A: 1.49 µM

Q: What about the TGI (MALME-3M melanoma) of the same compound?
A: 11.7 µM

Q: What about the GI50 (KM12 colon) of the same compound?
A: 0.542 µM

Q: What about the TGI (KM12 colon) of the same compound?
A: 8.2 µM

Q: And the GI50 (UACC-62 melanoma)?
A: 0.495 µM

Q: And the TGI (UACC-62 melanoma)?
A: 5.93 µM

Q: And the GI50 (K-562 leukemia)?
A: 0.355 µM

Q: And the TGI (K-562 leukemia)?
A: > 55.2 µM

Q: And the GI50 (HOP-92 NSCLC)?
A: 3.47 µM

Q: And the TGI (HOP-92 NSCLC)?
A: 18.2 µM

Q: What about the GI50 (HS 578T breast) of the same compound?
A: 0.845 µM

Q: And the TGI (HS 578T breast)?
A: 5.15 µM

Q: And the GI50 (RXF 393 renal)?
A: 0.425 µM

Q: What about the TGI (RXF 393 renal) of the same compound?
A: 2.54 µM

Q: And the GI50 (RPMI-8226 leukemia)?
A: 0.37 µM

Q: What about the TGI (RPMI-8226 leukemia) of the same compound?
A: 1.66 µM

Q: And the GI50 (SF-268 CNS)?
A: 0.94 µM

Q: What about the TGI (SF-268 CNS) of the same compound?
A: 8.92 µM

Q: What about the GI50 (NCI/ADR-RES ovarian) of the same compound?
A: 0.61 µM

Q: And the TGI (NCI/ADR-RES ovarian)?
A: > 34.4 µM

Q: What about the GI50 (OVCAR-3 ovarian) of the same compound?
A: 0.603 µM

Q: And the TGI (OVCAR-3 ovarian)?
A: 10.3 µM

Q: And the GI50 (OVCAR-4 ovarian)?
A: 1.51 µM

Q: What about the TGI (OVCAR-4 ovarian) of the same compound?
A: > 100 µM

Q: What about the GI50 (BT-549 breast) of the same compound?
A: 1.01 µM

Q: And the TGI (BT-549 breast)?
A: 3.57 µM

Q: What about the GI50 (HCT-116 colon) of the same compound?
A: 0.404 µM

Q: And the TGI (HCT-116 colon)?
A: 21.8 µM

Q: And the GI50 (786-0 renal)?
A: 0.617 µM

Q: What about the TGI (786-0 renal) of the same compound?
A: 8.11 µM

Q: What about the GI50 (SR leukemia) of the same compound?
A: 0.341 µM

Q: What about the TGI (SR leukemia) of the same compound?
A: 2.03 µM

Q: What about the GI50 (COLO 205 colon) of the same compound?
A: 0.835 µM

Q: What about the TGI (COLO 205 colon) of the same compound?
A: 2.76 µM

Q: What about the GI50 (SF-295 CNS) of the same compound?
A: 0.897 µM

Q: What about the TGI (SF-295 CNS) of the same compound?
A: 7.03 µM

Q: And the GI50 (SK-MEL-28 melanoma)?
A: 1.01 µM

Q: What about the TGI (SK-MEL-28 melanoma) of the same compound?
A: 7.29 µM

Q: What about the GI50 (UO-31 renal) of the same compound?
A: 1.18 µM

Q: And the TGI (UO-31 renal)?
A: 14.2 µM

Q: What about the GI50 (SK-OV-3 ovarian) of the same compound?
A: 1.26 µM

Q: And the TGI (SK-OV-3 ovarian)?
A: 40.7 µM

Q: What about the GI50 (CAKI-1 renal) of the same compound?
A: 0.74 µM

Q: And the TGI (CAKI-1 renal)?
A: 7.24 µM

Q: What about the GI50 (HT29 colon) of the same compound?
A: 0.371 µM

Q: And the TGI (HT29 colon)?
A: 2.15 µM

Q: And the GI50 (TK-10 renal)?
A: 2.96 µM

Q: What about the TGI (TK-10 renal) of the same compound?
A: 26.7 µM

Q: And the GI50 (SF-539 CNS)?
A: 0.346 µM

Q: And the TGI (SF-539 CNS)?
A: 1.63 µM

Q: What about the GI50 (MDA-MB-435) of the same compound?
A: 0.296 µM
